Experimental findings from patent US9096596B2 (Janssen Pharmaceutica NV, priority 2013, dated 2015) are described below.

Broadly, the IC50 is the concentration that inhibits the measured activity by half. For orientation: Ki means the dissociation constant of the complex between target and ligand, obtained from inhibition or displacement. High values mean lower affinity, low ones higher affinity.

The target in assay [1] is T1, rat P2X7 (Rattus norvegicus (Rat), UniProt Q64663). Description: Ca2+ flux (FLIPR) in 1321N1 cells expressing recombinant rat P2X7 channel. It is filed as cell-based. The note with it: 250 μM BzATP, Calcium-4 dye. Put shortly:
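1321N1 cells stably expressing P2X7 were loaded with Calcium-4 dye for 60 min in HEPES-buffered saline (pH 7.40, 1 mM CaCl2, 1 mM MgCl2), then preincubated with test compounds for 30 min. Fluorescence change was read 180 s after agonist addition.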

Assay [2] deals with T1, rat P2X7. Description: Radioligand binding, rat P2X7-1321N1 cell membranes, tracer tritiated A-804598. As for the experimental part: (§1) On the day of the experiment, cell membrane preparations were made according to standard published methods. […] The compound can be prepared as described in the literature. […] The assay was terminated by filtration (GF/B filters pre-soaked with 0.3% PEI) and washed with washing buffer (Tris-HCl 50 mM). The IC50 generated in the binding assay was corrected for tracer concentration and affinity of the tracer to derive at the affinity (Ki) of the test compounds.

The target in assay [3] is T2, P2X7 (Homo sapiens (Human), UniProt Q99572). Description: Ca2+ flux (FLIPR) in 1321N1 cells expressing recombinant human P2X7 channel. The note with it: 250 μM BzATP, Calcium-4 dye. It is filed as cell-based. As for the experimental part:
1321N1 cells expressing the recombinant human, rat or mouse P2X7 channel was cultured in HyQ DME/(HyClone/Dulbecco's Modified Eagle Medium) high glucose supplemented with 10% Fetal Bovine Serum (FBS) and appropriate selection marker. Cells were seeded at a density of 25000 cells/well (96-well clear bottom black walled plates) in 100 μl volume/well. On the day of the experiment, cell plates were washed with assay buffer, containing (in mM): 130 NaCl, 2 KCl, 1 CaCl2, 1 MgCl2, 10 HEPES, 5 glucose; pH 7.40 and 300 mOs. After the wash, cells were loaded with the Calcium-4 dye (Molecular Device) and incubated in the dark for 60 minutes. Test compounds were prepared at 250× the test concentration in neat DMSO. Intermediate 96-well compound plates were prepared by transferring 1.2 μL of the compound into 300 μL of assay buffer. A further 3× dilution occurred when transferring 50 μL/well of the compound plate to 100 μL/well in the cell plate. Cells were incubated with test compounds and dye for 30 minutes. […] The fluorescence change was measured 180 seconds after adding the agonist.
On the technique in general: A change in cytosolic calcium serves as a functional read-out for many receptors and channels.

For assay [4], the target named is T2, P2X7. Description: Radioligand binding, human P2X7-1321N1 cell membranes, tracer tritiated A-804598. The procedure:
as §1

The target of assay [5] is T2, P2X7. Description: P2X7 antagonism in human PBMCs (IL-1β release, ELISA). It is filed as cell-based. The note with it: test compound 10 μM, IL-1β release in human PBMCs, LPS 30 ng/ml + Bz-ATP 0.5 mM, read-out: PBMC 10 μM (% control). As for the experimental part: Human blood was collected using a blood donor program. […] Cells were incubated for an additional 1.5 hours. […] In Table 2, when the data cell has been left blank, it is intended to mean that the compound was not tested in that assay.
For orientation: In an ELISA, binding on a coated surface is turned into a signal by an enzyme label.

[6] abbreviates: human P2X7-1321N1 membranes, 1 hour at 4° C., IC50 corrected for tracer concentration and affinity.
The mark [7] stands for this setting: rat P2X7-1321N1 membranes, 1 hour at 4° C., IC50 corrected for tracer concentration and affinity.

Where two headings read alike, the source gives them in different places.

T2 sequence (Q99572 whole entry): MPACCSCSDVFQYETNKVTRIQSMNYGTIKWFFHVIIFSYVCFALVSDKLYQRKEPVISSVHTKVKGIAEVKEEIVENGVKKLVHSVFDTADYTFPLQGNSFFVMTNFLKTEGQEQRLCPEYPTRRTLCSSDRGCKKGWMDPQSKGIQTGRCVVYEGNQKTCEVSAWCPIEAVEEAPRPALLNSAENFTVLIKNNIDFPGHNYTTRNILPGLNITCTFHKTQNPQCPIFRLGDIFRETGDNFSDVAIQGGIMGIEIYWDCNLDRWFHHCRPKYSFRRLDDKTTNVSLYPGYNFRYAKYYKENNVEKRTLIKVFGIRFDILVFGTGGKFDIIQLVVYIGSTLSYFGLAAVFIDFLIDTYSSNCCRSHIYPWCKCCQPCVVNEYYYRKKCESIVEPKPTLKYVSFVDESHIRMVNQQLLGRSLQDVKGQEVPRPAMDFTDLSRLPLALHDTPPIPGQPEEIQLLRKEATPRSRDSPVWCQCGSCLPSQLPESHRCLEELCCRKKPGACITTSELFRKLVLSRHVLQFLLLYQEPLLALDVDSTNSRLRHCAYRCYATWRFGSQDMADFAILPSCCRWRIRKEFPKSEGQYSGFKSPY
T1 sequence (Q64663 whole entry): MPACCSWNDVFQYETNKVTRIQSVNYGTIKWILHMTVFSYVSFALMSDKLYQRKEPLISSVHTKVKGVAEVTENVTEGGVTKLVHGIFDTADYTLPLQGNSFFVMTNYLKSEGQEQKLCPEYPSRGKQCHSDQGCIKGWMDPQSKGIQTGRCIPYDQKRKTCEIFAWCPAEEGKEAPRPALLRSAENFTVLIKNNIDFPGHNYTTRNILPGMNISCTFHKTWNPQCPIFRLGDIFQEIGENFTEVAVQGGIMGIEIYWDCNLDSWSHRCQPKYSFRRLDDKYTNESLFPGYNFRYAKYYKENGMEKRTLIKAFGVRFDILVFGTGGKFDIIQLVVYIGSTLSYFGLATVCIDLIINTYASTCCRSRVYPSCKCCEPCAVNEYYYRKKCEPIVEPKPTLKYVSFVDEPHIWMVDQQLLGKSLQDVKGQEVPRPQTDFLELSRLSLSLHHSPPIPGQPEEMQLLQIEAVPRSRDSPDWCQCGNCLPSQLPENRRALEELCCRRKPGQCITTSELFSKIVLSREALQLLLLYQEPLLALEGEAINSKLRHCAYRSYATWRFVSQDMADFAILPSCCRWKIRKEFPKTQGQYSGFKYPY

As to `Cc1nc2c(c(-c3ccn(CCF)n3)n1)C[C@@H](C)N(C(=O)c1cccc(C(F)(F)F)c1Cl)C2` (single isomer, unassigned) [Example 124, (R*)-(2-chloro-3-(trifluoromethyl)phenyl)(4-(1-(2-fluoroethyl)-1H-pyrazol-3-yl)-2,6-dimethyl-5,6-dihydropyrido[3,4-d]pyrimidin-7(8H)-yl)methanone], the IC50 on rat P2X7 [1] is 12.9 nM; on P2X7 [3], 31 nM. In addition, the Ki is 3.5 nM at rat P2X7 [2] and 25.1 nM on P2X7 [4].
For `O=C(c1ccc(F)cc1Cl)N1CCc2c(ncnc2-c2ccn[nH]2)C1` [Example 21], at P2X7 [3], the IC50 turned out to be 280 nM. Besides, on P2X7 [5], the remaining activity at 10 µM is -15.5%. At P2X7 [4] (setting [6]), this compound showed a Ki of 39.8 nM.
As to `Cc1nc2c(c(-c3[nH]ncc3F)n1)CCN(C(=O)c1cccc(Cl)c1Cl)C2` [Example 36, 7-[(2,3-Dichlorophenyl)carbonyl]-4-(4-fluoro-1H-pyrazol-5-yl)-2-methyl-5,6,7,8-tetrahydropyrido[3,4-d]pyrimidine], the results for the Ki on rat P2X7 [2] (setting [7]) and at P2X7 [4] (setting [6]) were 31.6 nM and 79.4 nM, respectively.
Consider `Cc1nc2c(c(-n3ccnn3)n1)CCN(C(=O)c1cccc(C(F)(F)F)c1Cl)C2` [Example 48, 7-{[2-Chloro-3-(trifluoromethyl)phenyl]carbonyl}-2-methyl-4-(1H-1,2,3-triazol-1-yl)-5,6,7,8-tetrahydropyrido[3,4-d]pyrimidine], for which the IC50 was 10000 nM at rat P2X7 [1] and 5010 nM on P2X7 [3]. The same compound yielded an inhibition constant (Ki) on P2X7 [4] (setting [6]) of 2000 nM.
`Cc1nc2c(c(-c3ccn[nH]3)n1)CCN(C(=O)c1ccc(Cl)c(F)c1Cl)C2` [Example 53, 7-[(2,4-Dichloro-3-fluorophenyl)carbonyl]-2-methyl-4-(1H-pyrazol-5-yl)-5,6,7,8-tetrahydropyrido[3,4-d]pyrimidine]: the IC50 at rat P2X7 [1] worked out at 1890 nM; on P2X7 [3] it was 83.4 nM. In addition, at P2X7 [4] (setting [6]), the affinity, expressed as Ki, was 63.1 nM.
Consider `CN(C)c1nc2c(c(-c3ccn[nH]3)n1)CCN(C(=O)c1cccc(C(F)(F)F)c1Cl)C2` [Example 54, 7-{[2-Chloro-3-(trifluoromethyl)phenyl]carbonyl}-N,N-dimethyl-4-(1H-pyrazol-5-yl)-5,6,7,8-tetrahydropyrido[3,4-d]pyrimidin-2-amine], for which the IC50 at rat P2X7 [1] worked out at 556 nM; at P2X7 [3], 21 nM. Moreover, the remaining activity at 10 µM on P2X7 [5] was found to be 5%. At P2X7 [4] (setting [6]), this compound came in with a Ki of 100 nM.
For the compound `O=C(c1cccc(C(F)(F)F)c1Cl)N1CCc2c(nc(C3CC3)nc2-c2ccn[nH]2)C1` [Example 57, 7-{[2-Chloro-3-(trifluoromethyl)phenyl]carbonyl}-2-cyclopropyl-4-(1H-pyrazol-5-yl)-5,6,7,8-tetrahydropyrido[3,4-d]pyrimidine], the IC50 at rat P2X7 [1] is 161 nM; at P2X7 [3] it was 16.5 nM. Further, on P2X7 [5], the remaining activity at 10 µM was -9.6%. The Ki at P2X7 [4] (setting [6]) was 63.1 nM.
On to `O=C(c1cccc(C(F)(F)F)c1Cl)N1CCc2c(nc(C(F)(F)F)nc2-c2ccn[nH]2)C1` [Example 60, (4-(1H-pyrazol-5-yl)-2-(trifluoromethyl)-5,6-dihydropyrido[3,4-d]pyrimidin-7(8H)-yl)(2-chloro-3-(trifluoromethyl)phenyl)methanone], for which, at P2X7 [3], the IC50 was found to be 65.5 nM. Further, the remaining activity at 10 µM on P2X7 [5] was 10.8%. At P2X7 [4] (setting [6]), this compound yielded a Ki of 79.4 nM.
Turning to `CC1Cc2c(ncnc2-c2ccn[nH]2)CN1C(=O)c1cccc(C(F)(F)F)c1Cl` (stereo not drawn) [Example 62, (2-chloro-3-(trifluoromethyl)phenyl)(6-methyl-4-(1H-pyrazol-5-yl)-5,6-dihydropyrido[3,4-d]pyrimidin-7(8H)-yl)methanone], the IC50 was found to be 5.6 nM on rat P2X7 [1] and 7.8 nM on P2X7 [3]. In addition, on P2X7 [5], the remaining activity at 10 µM was determined as 44.7%. The compound further had a Ki on P2X7 [4] (setting [6]) of 25.1 nM.
The like results for `CC1Cc2c(nc(N)nc2-c2ccn[nH]2)CN1C(=O)c1cccc(C(F)(F)F)c1Cl` (stereo not drawn) [Example 63, (2-amino-6-methyl-4-(1H-pyrazol-5-yl)-5,6-dihydropyrido[3,4-d]pyrimidin-7(8H)-yl)(2-chloro-3-(trifluoromethyl)phenyl)methanone] were, in that order, 2.5 nM, 316 nM, -4.1% and 22.4 nM.
For the compound `Cc1nc2c(c(-c3ccn[nH]3)n1)CC(C)N(C(=O)c1cccc(C(F)(F)F)c1C)C2` (stereo not drawn) [Example 77, (2,6-dimethyl-4-(1H-pyrazol-5-yl)-5,6-dihydropyrido[3,4-d]pyrimidin-7(8H)-yl)(2-methyl-3-(trifluoromethyl)phenyl)methanone], the IC50 at P2X7 [3] stood at 63.1 nM. On P2X7 [5], the remaining activity at 10 µM amounted to 20.9%. Moreover, the Ki at P2X7 [4] (setting [6]) was determined as 31.6 nM.
In the same order, the values of `Cc1nc2c(c(-c3ccn[nH]3)n1)CC(C)N(C(=O)c1ccc(Cl)cc1F)C2` (stereo not drawn) [Example 87, (4-chloro-2-fluorophenyl)(2,6-dimethyl-4-(1H-pyrazol-5-yl)-5,6-dihydropyrido[3,4-d]pyrimidin-7(8H)-yl)methanone] are 33.6 nM, 0.4% and 31.6 nM.
As for `Cc1nc2c(c(-c3ccn[nH]3)n1)CC(C)N(C(=O)c1ccc(F)cc1F)C2` (stereo not drawn) [Example 93, (2,4-difluorophenyl)(2,6-dimethyl-4-(1H-pyrazol-5-yl)-5,6-dihydropyrido[3,4-d]pyrimidin-7(8H)-yl)methanone], the results for the IC50 on rat P2X7 [1] and on P2X7 [3] were 385 nM and 28.5 nM, respectively. In addition, on P2X7 [5], the remaining activity at 10 µM was -1.7%. In addition, the Ki at P2X7 [4] (setting [6]) was 200 nM.
Regarding `Cc1nc2c(c(-c3ccn[nH]3)n1)CC(C)N(C(=O)c1ccc(Cl)cc1)C2` (stereo not drawn) [Example 96, (4-chlorophenyl)(2,6-dimethyl-4-(1H-pyrazol-5-yl)-5,6-dihydropyrido[3,4-d]pyrimidin-7(8H)-yl)methanone], the values for the IC50 at rat P2X7 [1] and on P2X7 [3] were 1840 nM and 50 nM, respectively. Moreover, the remaining activity at 10 µM at P2X7 [5] is 3.8%. The compound also returned an inhibitory constant (Ki) at P2X7 [4] (setting [6]) of 631 nM.
In the case of `Cc1nc2c(c(-c3ccn[nH]3)n1)CC(C)N(C(=O)c1ccccc1Cl)C2` (stereo not drawn) [Example 97, (2-chlorophenyl)(2,6-dimethyl-4-(1H-pyrazol-5-yl)-5,6-dihydropyrido[3,4-d]pyrimidin-7(8H)-yl)methanone], the IC50 amounted to 14000 nM on rat P2X7 [1] and 166 nM on P2X7 [3]. Moreover, the remaining activity at 10 µM at P2X7 [5] is -3.1%. For the same compound, the Ki at P2X7 [4] (setting [6]) turned out to be 200 nM.
On to `O=C(c1cccc(C(F)(F)F)c1Cl)N1CCc2c(ncnc2-n2nccn2)C1` [Example 108, 7-{[2-Chloro-3-(trifluoromethyl)phenyl]carbonyl}-4-(2H-1,2,3-triazol-2-yl)-5,6,7,8-tetrahydropyrido[3,4-d]pyrimidine], for which, on rat P2X7 [1], the IC50 turned out to be 67.9 nM. The Ki at rat P2X7 [2] (setting [7]) came to 7.9 nM.
With `O=C(c1cccc(C(F)(F)F)c1Cl)N1CCc2c(ncnc2-n2cnnc2)C1` [Example 109, (4-(4H-1,2,4-triazol-4-yl)-5,6-dihydropyrido[3,4-d]pyrimidin-7(8H)-yl)(2-chloro-3-(trifluoromethyl)phenyl)methanone], the half-inhibitory concentration (IC50) at rat P2X7 [1] was 485 nM; on P2X7 [3], 12.1 nM. Also, the remaining activity at 10 µM on P2X7 [5] worked out at 2.2%. This compound also displayed an inhibition constant (Ki) on P2X7 [4] (setting [6]) of 12.6 nM.
On to `O=C(c1cccc(C(F)(F)F)c1F)N1CCc2c(ncnc2-c2ccn[nH]2)C1` [Example 111, (4-(1H-pyrazol-5-yl)-5,6-dihydropyrido[3,4-d]pyrimidin-7(8H)-yl)(2-fluoro-3-(trifluoromethyl)phenyl)methanone], for which the IC50 came out at 807 nM on rat P2X7 [1] and 353 nM on P2X7 [3]. Further, on P2X7 [5], the remaining activity at 10 µM came out at 0.6%. The Ki on P2X7 [4] (setting [6]) came to 50.1 nM.
The like results for `O=C(c1cccc(C(F)(F)F)c1Cl)N1CCc2c(ncnc2-c2cccc(F)n2)C1` [Example 130, (2-chloro-3-(trifluoromethyl)phenyl)(4-(6-fluoropyridin-2-yl)-5,6-dihydropyrido[3,4-d]pyrimidin-7(8H)-yl)methanone] were, in that order, 1090 nM, 17.4 nM, 12.9% and 63.1 nM.
